{
  "source": "patent US12616681B2",
  "about": "“Compositions and methods for treating renal injury” (priority 2019, dated 2026)",
  "test_system": "mice",
  "experiment": "Induction of CIAKI by intravenous contrast media in mice",
  "type": "in vivo, C57/BL6 mice",
  "settings": "10 gI/kg iv, 48 h after administration",
  "description": "The two different […] in terms of viscosity and osmolality were administered intravenously to 5 mice for each group. Ten grams of iodine per body weight (gI/kg) of each CM was injected by a 26-gauge syringe through the tail vein. The blood samples for the analysis of functional assessment of kidney injury such as Cr, NGAL, and KIM-1 were taken at 48 h after administration (FIGS. 10(A, B)).",
  "data": [
    {"smiles": "CN(CC(O)CO)C(=O)c1c(I)c(NC(=O)C(CO)CO)c(I)c(C(=O)N(C)CC(O)CO)c1I", "note": "(stereo not drawn) [Xenetix]", "values": [
      {"measurement": "Cr vs normal control", "value": "significant increase"},
      {"measurement": "KIM-1 vs normal control", "value": "did not show significant differences"},
      {"measurement": "NGAL vs normal control", "value": "did not show significant differences"}
    ]}
  ]
}
